# Measurements taken from patent publication US20190072541A1, “BIOMARKERS FOR TREATMENT OF ALOPECIA AREATA” (THE TRUSTEES OF COLUMBIA UNIVERSITY IN THE CITY OF NEW YORK, priority 2015, published 2019).
# Assays:
# [1] = test system: patients with moderate to severe AA; assay: Oral ruxolitinib in three patients with moderate to severe AA (hair regrowth, biopsies); type: in vivo, human
# Experimental: Skin punch biopsies (4 mm) were obtained at baseline and after 12 weeks of treatment.
# For immunohistochemical studies of human skin, 5 μM formalin fixed and paraffin skin section were used. […] ImmPRESS HRP Anti Rabbit Ig or Mouse Ig (Peroxidase) Polymer (Vector Lab) were used as secondary antibody.
# The IFN and CTL signatures were used to develop a bivariate score statistic. Individual signature IFN and CTL scores were determined following procedures used in human SLE. The sets of genes selected to comprise the IFN and CTL signatures were CD8A, GZMB, and ICOS for the CTL signature, and CXCL9, CXCL10, CXCL11, STAT1, and MX1 for the IFN signature.
# [2] = test system: patients with moderate to severe AA; assay: Open-label trial of oral ruxolitinib in 12 patients with moderate to severe AA: hair regrowth (SALT); type: in vivo, human
# Source text: (§1) The study's primary efficacy endpoint was the proportion of responders at end of treatment, defined as those subjects achieving at least 50% regrowth compared to baseline assessed by the Severity of Alopecia Tool (SALT) score, a standardized, validated method for estimating hair loss in AA. Secondary efficacy endpoints included hair re-growth as a continuous variable. […] To assess response durability, responders were followed for 3 months after treatment was completed. Safety analysis was included as a secondary endpoint for all subjects who received at least one dose of ruxolitinib and was monitored as described at monthly visits.
# [3] = test system: ALADIN CTL, IFN and KRT signatures; assay: Skin biopsy gene expression / ALADIN scores in ruxolitinib trial; type: in vivo, human
# Source text: Biopsies and peripheral blood were obtained at baseline and after 12 weeks for immune monitoring and molecular studies. Several patients provided additional biopsies at intermediate time points during the course of treatment, and one patient provided an additional sample at week 24. Tissues specimens were fixed and stored in PAXgene Tissue Containers. Total RNA was extracted from skin biopsy specimens harvested during the course of the clinical trial using the PAXgene tissue miRNA kit. Library prep was performed for microarray analysis using Ovation RNA Amplification System V2 and Biotin Encore kits (NuGen Technologies, Inc., San Carlos, Calif.). Samples were subsequently hybridized to Human Genome U133 Plus 2.0 chips (Affymetrix, Santa Clara, Calif.) and scanned at the Yale Center for Genome Analysis. Library prep and microarray hybridization of RNA extracted from skin biopsies from three healthy controls were performed together with the samples from the treated patients for a total of 31 samples. Gene expression analyses included calculation of ALADIN scores, differential expression analysis of the expression levels for the identification of gene expression signatures, principal component analysis, and statistical analysis of the ALADIN scores. Microarray data from the 31 samples have been deposited in GEO under accession number GSE80342.
# ALADIN scores were calculated for all […] using the batch corrected expression data. The CTL, IFN, and KRT ALADIN scores were determined following procedures outlined previously. Briefly, z-scores are calculated for each PSID relative to the mean and standard deviation of normal controls. Scores for each gene are obtained by averaging z-scores of PSIDs mapping to that gene. Signature scores are then calculated averages of the scores for genes belonging to the corresponding signature.
# In order to examine possible differences between each of the CTL, IFN, and KRT ALADIN scores in responders and non-responders, in responders and normal controls and in non-responders and normal controls, the inventors tested for differences among the three groups using a Kruskal-Wallis test, followed by Wilcoxon Rank Sum tests as implemented in the coin package in R. The inventors then examined the change between baseline and ALADIN scores at 12 weeks for responders using Wilcoxon Signed Rank test as implemented in the coin package in R. The inventors further tested for differences in the three scores between responders at 12 weeks and normal controls.
# [4] = test system: patients with moderate to severe AA; assay: Adverse events in ruxolitinib trial; conditions: in vivo
# Source text: as §1
# Adverse events were assessed at every monthly visit. Patients were also encouraged to contact the study center in the interim between visits if they developed new signs or symptoms of concern.
# C3H/HeJ grafted mice = assay: Prevention of AA in C3H/HeJ skin graft model, systemic treatment from time of grafting; type: in vivo, mouse; conditions: systemic administration from the time of grafting
# Source text: IL-2 and IL-15 are well-known drivers of cytotoxic activity by IFN-γ-producing CD8+ effector T cells and NK cells and have been implicated in the induction and/or maintenance of autoreactive CD8+ T cells. To test the efficacy of IFN-γ- and γ c-targeted therapies in vivo, the inventors used the well-established graft model of AA, in which skin grafts from mice with spontaneous AA are transferred onto the backs of unaffected 10-week-old recipient C3H/HeJ mice. In this model, AA develops reliably in 95-100% of grafted recipients within 6-10 weeks, allowing us to test interventions aimed at either preventing or reversing disease.
# C3H/HeJ mouse strain (Jackson Laboratories, Bar Harbor, Me.) was used for all animal studies. Only female mice were used. Mouse recipients of alopecic skin grafts were aged 7-10 weeks at the time of grafting. For prevention experiments, drug administration began the day after grafting. For systemic treatment studies, drug administration was initiated approximately 3 months after mice lost their hair. For topical treatment studies, drug administration was initiated 20 weeks following grafting. […]
# For the prevention experiments, a time-to-event survival analysis for interval censored data was performed. […] Hair growth index was calculated.
# [5] = test system: CTL effectors from C3H/HeJ mice; assay: IL-15 responses in cultured CTL effectors; type: cell-based, mouse
# dermal sheath cells = assay: CTL killing of dermal sheath cells; type: cell-based, mouse
# [6] = test system: C3H/HeJ grafted mice with established AA; assay: Systemic treatment of established AA in grafted C3H/HeJ mice; type: in vivo, mouse
# Source text: C3H/HeJ mouse strain (Jackson Laboratories, Bar Harbor, Me.) was used for all animal studies. Only female mice were used. Mouse recipients of alopecic skin grafts were aged 7-10 weeks at the time of grafting. For prevention experiments, drug administration began the day after grafting. […] For topical treatment studies, drug administration was initiated 20 weeks following grafting. All animal procedures were done according to protocols approved by the Columbia University Medical Center Institutional Animal Care and Use Committee.
# [7] = test system: C3H/HeJ mice with long-standing AA; assay: Topical treatment of established AA in grafted C3H/HeJ mice; type: in vivo, mouse; conditions: applied to back skin
# Source text: This experiment was repeated three times. […] NS, not significant. […] Scale bar, 100 μm. […] Scale bar, 200 μm.
# Only female mice were used.
# CXCL10 = assay: Serum CXCL10 ELISA in tofacitinib-treated AA patient; type: in vivo, human; conditions: baseline vs 4 weeks of treatment
# Experimental: (§2) Punch biopsies of the scalp (FIG. 17) and blood draws were performed at baseline and after 4 weeks of treatment to monitor gene expression and biomarker changes. […] In addition, microarray analysis was performed on the skin biopsy samples.
# [8] = test system: ALADIN IFN and CTL signatures; assay: ALADIN scores of scalp biopsies in tofacitinib-treated AA patient; type: in vivo, human; conditions: baseline vs 4 weeks of treatment
# Experimental: as §2
# [9] = test system: patient with persistent moderate/severe AA; assay: Oral tofacitinib in one patient with persistent moderate/severe AA (hair regrowth, safety)
# [10] = systemic therapy initiated 7 weeks after grafting
structure (smiles),measurement,setting,value
N#CC[C@H](C1CCCC1)n1cc(-c2ncnc3[nH]ccc23)cn1 [ruxolitinib],regrowth achieved,[1]; oral 20 mg BID for at least 3 months,over 90%
same,time to near-complete hair regrowth,"[1]; oral, 20 mg twice daily",3 to 5 months
same,proportion of patients achieving the primary outcome of at least 50% regrowth,"[2]; 20 mg PO twice daily, 3 to 6 months, nine of twelve patients",75%
same,mean SALT score at 3 months,[2]; baseline 65.8±28.0%,24.8±22.9%
same,mean SALT score at the end of 6 months of treatment,"[2]; baseline 65.8±28.0%, p<0.004",7.3±13.5%
same,average hair regrowth at the end of treatment,[2]; nine responding patients,92%
same,"reduction in hair loss from baseline, responders as a group",[2]; responders,92%
same,"CTL score at week 12, overall","[3]; all patients, baseline 8.30, p<0.004",1.51
same,"IFN score at week 12, overall","[3]; all patients, baseline 31.08, p<0.004",−0.37
same,"KRT score at week 12, overall","[3]; all patients, baseline −39.36, p=0.054",−15.02
same,"CTL score at week 12, responders only","[3]; baseline 9.37, p<0.008",1.6
same,"IFN score at week 12, responders only","[3]; baseline 38.37, p<0.008",0.24
same,"KRT score at week 12, responders only","[3]; baseline −37.84, p=0.039",−15.42
same,earliest time decreased IFN and CTL scores were demonstrable after the initiation of treatment,[3]; post-treatment biopsies,2 weeks
same,URI/allergy symptoms,[4]; human,9 episodes
same,GI symptoms,[4],mild GI symptoms
same,UTI,[4],one UTI
same,acne or scalp folliculitis,[4],Two patients developed lesions consistent with acne or scalp folliculitis
same,bacterial skin infections,[4],three minor bacterial skin infections (in the same patient)
same,conjunctival hemorrhage,[4],one conjunctival hemorrhage following a surgical procedure
same,discontinuation of therapy,[4],no patients required discontinuation of therapy
same,hemoglobin,[4],"One patient developed lowered hemoglobin, which resolved with dose modification"
same,hepatic abnormalities,[4],No hepatic abnormalities were observed
same,platelet counts,[4],No significant decline in platelet counts
same,pneumonia,[4],one mild pneumonia
same,serious adverse effects,[4],no serious adverse effects
same,white blood cell counts,[4],modest declines of white blood cell counts initially but levels remained within normal limits
C[C@@H]1CCN(C(=O)CC#N)C[C@@H]1N(C)c1ncnc2[nH]ccc12 [tofacitinib],AA development in grafted recipients,C3H/HeJ grafted mice,prevented the development of AA
same,"CD8+NKG2D+ T cells in the skin (infiltration, accumulation, expansion)",C3H/HeJ grafted mice,prevented
same,IL-15-induced upregulation of granzyme B and IFN-γ expression,[5],blocked
same,IL-15-triggered pSTAT5 activation,[5]; cultured CTL effectors,blocked
same,killing of dermal sheath cells,dermal sheath cells,blocked
same,persistence of effects after the cessation of treatment,[6]; systemic therapy,2-3 months
same,frequency of CD8+NKG2D+ T cells,[6]; [10],reduced the frequency of CD8+NKG2D+ T cells
same,hair regrowth,[6]; [10],substantial hair regrowth all over the body
same,histological markers,[6]; [10],reversed histological markers
same,reversal of disease in treated lesions,[7],highly effective in reversing disease in treated lesions
same,serum levels of CXCL10,CXCL10,decreased after 4 weeks of treatment
same,IFN and CTL signatures (ALADIN),[8],"decreased by 4 weeks of treatment, although not to the level of normal controls"
same,hair loss 8 weeks following cessation of treatment,[9]; FIG. 16 left panel,Minimal hair loss
same,hair loss 16 weeks following cessation of treatment,[9]; FIG. 16 right panel,almost complete loss of scalp hair
same,outcome after cessation of treatment,"[9]; human, in vivo",near-complete hair loss
same,adverse events,[9]; oral 5 mg twice daily,no adverse events reported
same,hair regrowth at month 1,[9]; oral 5 mg twice daily,Patchy regrowth
same,"laboratory abnormalities (complete blood count, complete metabolic panel, lipid profile)",[9]; oral 5 mg twice daily,no laboratory abnormalities
same,regrowth of eyebrows and eyelashes,[9]; oral 5 mg twice daily,Significant regrowth
same,scalp hair regrowth 4 months after initiating treatment,[9]; oral 5 mg twice daily,nearly complete
same,scalp hair regrowth after three months of treatment,[9]; oral 5 mg twice daily,94%
same,scalp hair regrowth after two months of treatment,[9]; oral 5 mg twice daily,62.5%
